The first assay concerns the target kinase IRAK4 (Homo sapiens (Human), UniProt Q9NWZ3). As to the kind of experiment: Inhibitory effects of compounds on kinase activity (fluorescence microfluidic mobility detection, competitive with ATP). Conditions: Table 2; IRAK4 6 nM, ATP 10 μM, substrate FAM-P8 3 μM. The format is biochemical. The method, then:
Based on an experimental method of fluorescence microfluidic mobility detection, an IC50 value of competitive binding of kinase IRAK4 to ATP by the compounds was determined. The initial detection concentration of the compounds was 10 μM, diluted 4-fold gradient down to […], and tested in duplicate. Among them, commercial staurosporine was the standard control substance in this experiment.
1) IRAK4 kinase was dissolved in kinase buffer (50 mM HEPES pH 7.5, 10 mM MgCl2, 2 mM DTT and 0.01% Brij-35) to a final concentration of 6 nM.
2) The substrate peptide FAM-P8 and ATP were dissolved in the above kinase buffer. The final concentrations of the IRAK4 substrate peptide FAM-P8 and ATP were 3 μM and 10 μM respectively.
3) Dilution of the compounds: the compound was first diluted to 50 μM, and then diluted down with a 4-fold gradient of DMSO. The solution without the compound and kinase is used as a blank control, corresponding to the “minimum value” shown below; and the solution without the compound but with kinase, adenosine 5′-triphosphate disodium salt hydrate, DMSO and buffer is used as a positive control, corresponding to the “maximum value” shown below. 4) Kinase reaction and termination: 10 μL of kinase buffer was added to a 384-well plate containing 5 μL of the compound to be tested, and incubated at room temperature for 10 minutes. Another 10 μL of buffer containing the substrate peptide and adenosine 5′-triphosphate disodium salt hydrate was added to the 384-well plate. After incubation at 28° C. for one hour, 25 μL stop solution (100 mM HEPES pH 7.5, 50 mM EDTA, 0.2% Coating Reagent #3 and 0.015% Brij-35) was added to each well to terminate the reaction.
5) Data reading: the CaliperEZ Reader II instrument was used to read the conversion rate data. Conditions: downstream voltage −500V, upstream voltage −2250V, base pressure −0.5 PSI, and screening pressure −1.2 PSI.
6) Data calculation: the conversion rate data was copied from CaliperEZ Reader II and converted into inhibition rate data. The calculation formula is as follows:
[formula] • IC50 values were fitted using XLFit excel add-in version 5.4.0.8,
Y=Bottom+(Top−Bottom)/(1+(IC50/X)^HillSlope) Fitting formula: […]
IRAK4 protein in THP-1 cells, sequence (Q9NWZ3 whole entry): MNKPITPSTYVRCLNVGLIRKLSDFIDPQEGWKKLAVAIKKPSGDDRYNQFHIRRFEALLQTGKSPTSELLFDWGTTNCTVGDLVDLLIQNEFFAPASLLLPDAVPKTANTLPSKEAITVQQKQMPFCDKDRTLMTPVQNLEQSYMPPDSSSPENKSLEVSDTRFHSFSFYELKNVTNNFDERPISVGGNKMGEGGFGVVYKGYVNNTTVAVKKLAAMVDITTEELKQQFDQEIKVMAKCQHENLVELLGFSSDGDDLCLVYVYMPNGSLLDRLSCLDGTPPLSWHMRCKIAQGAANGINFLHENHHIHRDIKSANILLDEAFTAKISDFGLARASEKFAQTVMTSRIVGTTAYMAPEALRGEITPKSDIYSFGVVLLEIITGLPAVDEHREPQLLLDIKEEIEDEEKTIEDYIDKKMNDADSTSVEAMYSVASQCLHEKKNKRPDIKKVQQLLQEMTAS
kinase IRAK4, sequence (Q9NWZ3 whole entry): as above
As for `COc1cc2nn(C3CC4(CCN(C(=O)C5CCN(c6ccc7c(c6)C(=O)N(C6CCC(=O)NC6=O)C7=O)CC5)CC4)C3)cc2cc1NC(=O)c1cnn2ccc(N3CCN(C)CC3)nc12` (stereo not shown) [Compound I-49], the half-inhibitory concentration (IC50) was found to be 13.4 nM.

For `COc1cc2nn(C3CC4(CCN(C(=O)C5CCN(c6ccc7c(c6)C(=O)N(C6CCC(=O)NC6=O)C7=O)CC5)CC4)C3)cc2cc1NC(=O)c1cccc(C(F)F)n1` (stereo not shown) [Compound I-42], the half-maximal inhibitory concentration (IC50) amounted to 10.2 nM.

The compound `COc1cc2nn([C@H]3C[C@@H]4CN(C(=O)C5CCN(c6ccc7c(c6)C(=O)N(C6CCC(=O)NC6=O)C7=O)CC5)C[C@@H]4C3)cc2cc1NC(=O)c1cccc(C(F)(F)F)n1` (stereo partly shown) [Compound I-28] had a concentration for half-maximal inhibition (IC50) of 12.5 nM.

`COc1cc2nn(C3CC4(CCN(C(=O)C5CCN(c6ccc7c(c6)C(=O)N(C6CCC(=O)NC6=O)C7=O)CC5)CC4)C3)cc2cc1NC(=O)c1cccc(N2CCOCC2)n1` (stereo not shown) [Compound I-41] gave an IC50 of 49.8 nM.

`COc1cc2nn(C3CC4(CCN(C(=O)C5CC6(C5)CN(c5ccc7c(c5)C(=O)N(C5CCC(=O)NC5=O)C7=O)C6)CC4)C3)cc2cc1NC(=O)c1cccc(C(F)(F)F)n1` (stereo not shown) [Compound I-17] showed an IC50 of 31 nM.

Regarding `O=C1CCC(N2C(=O)c3ccc(N4CCN(C(=O)CN5CCC(n6cc7cc(NC(=O)c8cccc(C(F)(F)F)n8)c(OC(F)(F)F)cc7n6)CC5)CC4)cc3C2=O)C(=O)N1` (stereo not shown) [II-2], the concentration for half-maximal inhibition (IC50) worked out at 34 nM.

In turn, `COc1cc2nn(C3CC4(CCN(C5CC6(CCN(c7ccc8c(c7)C(=O)N(C7CCC(=O)NC7=O)C8=O)CC6)C5)CC4)C3)cc2cc1NC(=O)c1cccc(C(F)(F)F)n1` (stereo not shown) [Compound I-24] registered an IC50 of 17.4 nM.

In the case of `COc1cc2nn(C3CC4(CCN(C(=O)C5CCN(c6cc7c(cc6F)C(=O)N([C@H]6CCC(=O)NC6=O)C7=O)CC5)CC4)C3)cc2cc1NC(=O)c1cccc(C(F)(F)F)n1` [Compound I-61], the IC50 amounted to 31.4 nM.

For the compound `COc1cc2nn(C3CC4(CCC(NC5CCN(c6ccc7c(c6)C(=O)N(C6CCC(=O)NC6=O)C7=O)CC5)CC4)C3)cc2cc1NC(=O)c1cccc(C(F)(F)F)n1` (stereo not shown) [Compound I-16], the IC50 is 11.6 nM.

The compound `COc1cc2nn(C3CC4(CCN(C(=O)C5CCN(c6ccc7c(c6)C(=O)N([C@H]6CCC(=O)NC6=O)C7=O)CC5)CC4)C3)cc2cc1NC(=O)c1cccc(C(F)(F)F)n1` [Compound I-57] had a concentration for half-maximal inhibition (IC50) of 32.4 nM.

`COc1cc2nn(C3CCN(CC(=O)N4CCN(c5cccc6c5C(=O)N(C5CCC(=O)NC5=O)C6=O)CC4)CC3)cc2cc1NC(=O)c1cccc(C(F)(F)F)n1` (stereo not shown) [II-20] showed an IC50 of 5.5 nM.

Another assay concerns the target IRAK4 protein in THP-1 cells (Homo sapiens (Human), UniProt Q9NWZ3). As to the kind of experiment: PROTAC-induced IRAK4 protein degradation in THP-1 cells (Western Blot). It counts as cell-based. Conditions: concentration that degraded 50% of IRAK4, Western blotting, 24 hours after administration. The method, then: 2.1 Based on the experimental method of Western Blot, specific antibodies were used to stain the THP-1 cell samples treated by gel electrophoresis, and the degrading activity of the compounds on the IRAK4 protein in THP-1 cells was determined by analyzing the position and depth of staining. The concentrations of compound for the detection included 0 μM, 0.3 μM, 1 μM and 3 μM, and the cells were treated by the compound for 8 hours, 16 hours, 24 hours, and 48 hours. Glyceraldehyde-3-phosphate dehydrogenase (GAPDH) is an internal reference protein in this experiment.
Electrophoresis buffer: 50 mL MOPS SDS Running Buffer (20×) and 50 mL 20×TBS Tween-20 buffer were diluted with deionized water to 1 L as the electrophoresis buffer;
5% skim milk (w/v): 2.5 g skim milk was diluted with 50 mL 1×TBS Tween-20 buffer to prepare 5% skim milk;
5% BSA (w/v): 2.5 g BSA was diluted with 50 mL 1×TBS Tween-20 buffer to prepare 5% BSA;
Anti-IRAK4 antibody was diluted with 5% BSA at 1:1000 into a primary antibody working solution;
Goat Anti-Rabbit IgG H&L (HRP) was diluted with 5% BSA at 1:2000 into a second antibody working solution; and
Goat Anti-Mouse IgG H&L (HRP) was diluted with 5% BSA at 1:2000 into a second antibody working solution.
THP-1 cells were plated in a 6-well plate at a density of 1.5×10^6 cells per ml and incubated for 2 hours in a cell culture incubator under 37° C. and 5% CO2. The compound was diluted with DMSO to 0.6 mM, 0.2 mM and 0.06 mM respectively. 10 μL of compound solution was added to the corresponding wells, and continued to incubate in the incubator for 16 hours, 24 hours and 48 hours respectively. The compound-treated THP-1 cells in the well were collected, added with 120 μL of RIPA lysate containing protease inhibitor, Phosphatase Inhibitor Cocktail 2 and Phosphatase Inhibitor Cocktail 3, lysed on wet ice for 30 minutes, and then the cells lysate was centrifuged at a high speed and a low temperature for 5 minutes to collect the supernatant. The protein concentration of the cell sample was determined according to the instructions in the Pierce™ BCA Protein Assay Kit.
The concentration of the sample was adjusted to be consistent using lysis buffer and NuPAGE® LDS sample buffer containing 1M DTT. The samples were heated at 95° C. for 5 minutes and centrifuged at a low temperature and at a high speed. 20 μL of the prepared protein sample and 4 μL of PageRuler Prestained Protein Ladder were added into the gel well for running at 80V voltage for 0.5 hours, then the voltage was adjusted to 120V for further running for 1.5 hours. The gel was removed and the proteins in the gel were transferred to the IBlotTM 2 transfer membrane set at 20V. After successful transfer, bands at 65 kDa-40 kDa and 40 kDa-30 kDa were cut respectively. The membranes were blocked with 5% skim milk for 1 hour at room temperature. The membranes were washed three times with 1× concentration of TBST, then incubated with IRAK4 antibody working solution overnight at 4° C. The IRAK4 antibody working solution was discarded, and the membranes were washed three times with 1×concentration of TBST, and incubated with Goat Anti-Rabbit IgG H&L (HRP) working solution and Goat Anti-Mouse IgG H&L (HRP) working solution at room temperature. After 1 hour of incubation, the antibody working solution was discarded and the membranes were washed three times with 1× concentration of TBST. According to the instructions of the kit SuperSignal™ West Femto Maximum Sensitivity Substrate, the reagents in the kit were mixed in equal volume proportions to prepare a luminescent liquid mixture. The membranes were incubated for 1 minute, then removed for exposure.
The results of Western blotting 24 hours after administration of the compounds with a concentration of 1 μM were shown in Table 3: […]
(In general: Immunoblotting shows a protein as a band on a membrane.)
In the case of `COc1cc2nn(C3CC4(CCN(C(=O)C5CCN(c6ccc7c(c6)C(=O)N(C6CCC(=O)NC6=O)C7=O)CC5)CC4)C3)cc2cc1NC(=O)c1cnn2ccc(N3CCN(C)CC3)nc12` (stereo not shown) [Compound I-49], the half-maximal degradation concentration (DC50) stood at 9.79 nM.

In the case of `COc1cc2nn(C3CC4(CCN(C(=O)C5CCN(c6ccc7c(c6)C(=O)N(C6CCC(=O)NC6=O)C7=O)CC5)CC4)C3)cc2cc1NC(=O)c1cccc(C(F)F)n1` (stereo not shown) [Compound I-42], the 50% degradation concentration (DC50) worked out at 1.2 nM.

With `COc1cc2nn([C@H]3C[C@@H]4CN(C(=O)C5CCN(c6ccc7c(c6)C(=O)N(C6CCC(=O)NC6=O)C7=O)CC5)C[C@@H]4C3)cc2cc1NC(=O)c1cccc(C(F)(F)F)n1` (stereo partly shown) [Compound I-28], it took 8.3 nM to reach half-maximal degradation (DC50).

On to `COc1cc2nn(C3CC4(CCN(C(=O)C5CCN(c6ccc7c(c6)C(=O)N(C6CCC(=O)NC6=O)C7=O)CC5)CC4)C3)cc2cc1NC(=O)c1cccc(N2CCOCC2)n1` (stereo not shown) [Compound I-41], for which it took 4.42 nM to reach half-maximal degradation (DC50).

On to `COc1cc2nn(C3CC4(CCN(C(=O)C5CC6(C5)CN(c5ccc7c(c5)C(=O)N(C5CCC(=O)NC5=O)C7=O)C6)CC4)C3)cc2cc1NC(=O)c1cccc(C(F)(F)F)n1` (stereo not shown) [Compound I-17], for which the 50% degradation concentration (DC50) was determined as 25.9 nM.

Compound `O=C1CCC(N2C(=O)c3ccc(N4CCN(C(=O)CN5CCC(n6cc7cc(NC(=O)c8cccc(C(F)(F)F)n8)c(OC(F)(F)F)cc7n6)CC5)CC4)cc3C2=O)C(=O)N1` (stereo not shown) [II-2] showed a DC50 of 32.8 nM.

`COc1cc2nn(C3CC4(CCN(C5CC6(CCN(c7ccc8c(c7)C(=O)N(C7CCC(=O)NC7=O)C8=O)CC6)C5)CC4)C3)cc2cc1NC(=O)c1cccc(C(F)(F)F)n1` (stereo not shown) [Compound I-24] showed a 50% degradation concentration (DC50) of 15.3 nM.

`COc1cc2nn(C3CC4(CCN(C(=O)C5CCN(c6cc7c(cc6F)C(=O)N([C@H]6CCC(=O)NC6=O)C7=O)CC5)CC4)C3)cc2cc1NC(=O)c1cccc(C(F)(F)F)n1` [Compound I-61]: the 50% degradation concentration (DC50) turned out to be 7.62 nM.

On to `COc1cc2nn(C3CC4(CCC(NC5CCN(c6ccc7c(c6)C(=O)N(C6CCC(=O)NC6=O)C7=O)CC5)CC4)C3)cc2cc1NC(=O)c1cccc(C(F)(F)F)n1` (stereo not shown) [Compound I-16], for which half-maximal degradation (DC50) was put at 9.9 nM.

As for `COc1cc2nn(C3CC4(CCN(C(=O)C5CCN(c6ccc7c(c6)C(=O)N([C@H]6CCC(=O)NC6=O)C7=O)CC5)CC4)C3)cc2cc1NC(=O)c1cccc(C(F)(F)F)n1` [Compound I-57], half-maximal degradation (DC50) was put at 12.2 nM.

Take `COc1cc2nn(C3CCN(CC(=O)N4CCN(c5cccc6c5C(=O)N(C5CCC(=O)NC5=O)C6=O)CC4)CC3)cc2cc1NC(=O)c1cccc(C(F)(F)F)n1` (stereo not shown) [II-20]: the DC50 was determined as 14.1 nM.

In general, IC50 refers to the concentration that inhibits the measured activity by half. For orientation: DC50 means the concentration giving 50% degradation. Low readings indicate a more potent degrader, high ones a less potent degrader.

The record behind these values is patent publication US20240423977A1, “FIVE-MEMBERED RING-FUSED SIX-MEMBERED RING COMPOUND, PREPARATION METHOD THEREFOR, AND PHARMACEUTICAL COMPOSITION AND USE THEREOF” (HANGZHOU POLYMED BIOPHARMACEUTICALS, INC., priority 2022, published 2024).
